Measurements reported in patent publication US20150344540A1, “NOVEL GLP-1 RECEPTOR AGONISTS WITH CHOLESTEROL EFFLUX ACTIVITY” (NOVO NORDISK A/S, priority 2012, published 2015).
Where two headings read alike, the source gives them in different places. Where a SMILES comes first, the peptide text is derived from it. [ ]: non-standard residue; d: D form. Aib = CC(C)(N)C(=O)O

Experiments:
human GLP-1 receptor = human GLP-1 receptor (Homo sapiens, UniProt P43220); assay: Functional GLP-1 receptor assay, in vitro potency (CRE luciferase; whole cells); type: cell-based
[1] = test system: Mouse monocyte/macrophage cell line, RAW 264.7; assay: Cholesterol efflux assay (3H-cholesterol, macrophage cell line); type: cell-based; conditions: RAW 264.7, 4 hrs incubation, 0.1% human serum albumin; for 4 h Cholesterol Efflux Emax: ABCA1-mediated efflux; for EC50: read-out: 4 h Cholesterol Efflux EC50, ABCA1-mediated efflux (CPT-cAMP induced minus non-induced)
[2] = BHK cells expressing human GLP-1 receptor, 0% HSA, read-out: GLP1R CRE luc 0% HSA EC50 Mean Value
[3] = GLP1R CRE luc 1% HSA EC50 Mean Value, BHK cells expressing human GLP-1 receptor, 1% HSA

Chain of human GLP-1 receptor (P43220 24-463): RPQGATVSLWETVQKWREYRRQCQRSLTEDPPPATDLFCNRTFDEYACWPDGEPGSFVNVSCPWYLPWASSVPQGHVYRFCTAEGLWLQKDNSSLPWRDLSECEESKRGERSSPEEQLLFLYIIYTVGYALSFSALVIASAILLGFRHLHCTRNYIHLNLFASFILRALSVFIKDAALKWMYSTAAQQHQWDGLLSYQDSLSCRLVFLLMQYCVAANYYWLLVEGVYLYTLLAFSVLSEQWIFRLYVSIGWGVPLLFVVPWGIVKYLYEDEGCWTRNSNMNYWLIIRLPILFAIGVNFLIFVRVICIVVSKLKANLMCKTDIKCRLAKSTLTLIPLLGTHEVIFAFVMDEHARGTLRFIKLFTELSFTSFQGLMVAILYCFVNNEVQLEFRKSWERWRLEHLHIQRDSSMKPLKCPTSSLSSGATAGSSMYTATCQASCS

Row | Compound | EC50 (human GLP-1 receptor; [2]) [nM] | EC50 (human GLP-1 receptor; [3]) [nM] | 4 h Cholesterol Efflux Emax [1] [%] | EC50 (human GLP-1 receptor; GLP1R CRE luc 1% HSA EC50 Mean Value) [nM] | EC50 [1] [nM] | EC50 (human GLP-1 receptor; GLP1R CRE luc 0% HSA EC50 Mean Value) [nM]
1 | CC(C)C[C@H](NC(=O)[C@H](Cc1ccccc1)NC(=O)[C@H](CCC(=O)O)NC(=O)[C@H](CCCCN)NC(=O)C(C)(C)NC(=O)[C@H](CCCCN)NC(=O)[C@H](CCC(=O)O)NC(=O)[C@H](CC(C)C)NC(=O)[C@H](CC(C)C)NC(=O)[C@H](Cc1c[nH]c2ccccc12)NC(=O)[C@H](CCC(N)=O)NC(=O)[C@@H](NC(=O)[C@H](Cc1ccccc1)NC(=O)[C@H](CCC(=O)O)NC(=O)[C@H](CCCNC(=N)N)NC(=O)[C@H](C)NC(=O)[C@H](C)NC(=O)[C@H](CCCCN)NC(=O)CNC(=O)[C@H](CC(=O)O)NC(=O)[C@H](CC(C)C)NC(=O)[C@H](Cc1ccc(O)cc1)NC(=O)[C@H](CCCCN)NC(=O)[C@H](CO)NC(=O)[C@H](Cc1ccc(O)cc1)NC(=O)[C@H](CC(=O)O)NC(=O)[C@H](CO)NC(=O)[C@@H](NC(=O)[C@H](Cc1ccccc1)NC(=O)[C@@H](NC(=O)CNC(=O)[C@H](CCC(N)=O)NC(=O)C(C)(C)NC(=O)[C@@H](N)Cc1c[nH]cn1)[C@@H](C)O)[C@@H](C)O)C(C)C)C(N)=O [Compound 24] (H-H[Aib]QGTFTSDYSKYLDGKAAREFVQWLLEK[Aib]KEFL-NH2) | 1.63 | 0.908 | 82 |  |  | 
2 | CC(C)C[C@H](NC(=O)[C@H](Cc1ccccc1)NC(=O)[C@H](CCC(=O)O)NC(=O)[C@H](CCCCN)NC(=O)C(C)(C)NC(=O)[C@H](CCCCN)NC(=O)[C@H](CCC(=O)O)NC(=O)[C@@H](NC(=O)[C@H](CC(C)C)NC(=O)[C@H](Cc1c[nH]c2ccccc12)NC(=O)[C@H](CCC(N)=O)NC(=O)[C@@H](NC(=O)[C@H](Cc1ccccc1)NC(=O)[C@H](CCC(=O)O)NC(=O)[C@H](CCCCN)NC(=O)[C@@H](NC(=O)[C@H](C)NC(=O)[C@H](CCC(=O)O)NC(=O)CNC(=O)[C@H](CCC(=O)O)NC(=O)[C@H](CC(C)C)NC(=O)[C@H](Cc1ccc(O)cc1)NC(=O)[C@H](CO)NC(=O)[C@H](CO)NC(=O)[C@@H](NC(=O)[C@H](CC(=O)O)NC(=O)[C@H](CO)NC(=O)[C@@H](NC(=O)[C@H](Cc1ccccc1)NC(=O)[C@@H](NC(=O)CNC(=O)[C@H](CCC(=O)O)NC(=O)C(C)(C)NC(=O)[C@@H](N)Cc1c[nH]cn1)[C@@H](C)O)[C@@H](C)O)C(C)C)C(C)C)C(C)C)C(C)C)C(N)=O [Compound 65, [Aib8,Glu23,Val25,Val29,Gln30,Glu34,Lys35,Aib36,Lys37]-GLP-1-(7-37)-peptidyl-Glu-Phe-Leu amide] (H-H[Aib]EGTFTSDVSSYLEGEAVKEFVQWLVEK[Aib]KEFL-NH2; N-terminus assumed) |  |  | 96 | 0.037 | 410 | 
3 | CC[C@H](C)[C@H](NC(=O)[C@H](Cc1ccccc1)NC(=O)[C@H](CCC(=O)O)NC(=O)[C@H](CCCCN)NC(=O)[C@@H](NC(=O)[C@H](C)NC(=O)[C@H](CCC(=O)O)NC(=O)CNC(=O)[C@H](CCC(=O)O)NC(=O)[C@H](CC(C)C)NC(=O)[C@H](Cc1ccc(O)cc1)NC(=O)[C@H](CO)NC(=O)[C@H](CO)NC(=O)[C@@H](NC(=O)[C@H](CC(=O)O)NC(=O)[C@H](CO)NC(=O)[C@@H](NC(=O)[C@H](Cc1ccccc1)NC(=O)[C@@H](NC(=O)CNC(=O)[C@H](CCC(=O)O)NC(=O)C(C)(C)NC(=O)[C@@H](N)Cc1c[nH]cn1)[C@@H](C)O)[C@@H](C)O)C(C)C)C(C)C)C(=O)N[C@@H](C)C(=O)N[C@@H](Cc1c[nH]c2ccccc12)C(=O)N[C@@H](CC(C)C)C(=O)N[C@H](C(=O)N[C@@H](CCC(=O)O)C(=O)N[C@@H](CCCCN)C(=O)N[C@H](C(=O)N[C@@H](CCCCN)C(=O)N[C@@H](CCC(=O)O)C(=O)N[C@H](C(=O)N[C@@H](CC(C)C)C(N)=O)C(C)C)C(C)C)C(C)C [Compound 120, [Aib8,Glu23,Val25,Glu34,Lys35,Val36,Lys37]-GLP-1-(7-37)-peptidyl-Glu-Val-Leu amide] (H-H[Aib]EGTFTSDVSSYLEGEAVKEFIAWLVEKVKEVL-NH2; N-terminus assumed) |  |  | 142 |  | 380 | 0.198
4 | CC[C@H](C)[C@H](NC(=O)[C@H](Cc1ccccc1)NC(=O)[C@H](CCC(=O)O)NC(=O)[C@H](CCCCN)NC(=O)[C@@H](NC(=O)[C@H](C)NC(=O)[C@H](CCC(=O)O)NC(=O)CNC(=O)[C@H](CCC(=O)O)NC(=O)[C@H](CC(C)C)NC(=O)[C@H](Cc1ccc(O)cc1)NC(=O)[C@H](CO)NC(=O)[C@H](CO)NC(=O)[C@@H](NC(=O)[C@H](CC(=O)O)NC(=O)[C@H](CO)NC(=O)[C@@H](NC(=O)[C@H](Cc1ccccc1)NC(=O)[C@@H](NC(=O)CNC(=O)[C@H](CCC(=O)O)NC(=O)C(C)(C)NC(=O)[C@@H](N)Cc1c[nH]cn1)[C@@H](C)O)[C@@H](C)O)C(C)C)C(C)C)C(=O)N[C@@H](C)C(=O)N[C@@H](Cc1c[nH]c2ccccc12)C(=O)N[C@@H](CC(C)C)C(=O)N[C@H](C(=O)NCC(=O)NC(C)(C)C(=O)N[C@@H](CCCCN)C(=O)N[C@@H](CCC(=O)O)C(=O)N[C@@H](Cc1ccccc1)C(=O)N[C@@H](CC(C)C)C(N)=O)C(C)C [Compound 10] (H-H[Aib]EGTFTSDVSSYLEGEAVKEFIAWLVG[Aib]KEFL-NH2) | 0.01 | 0.004 | 79 |  |  | 

More lines, in order of falling EC50 (human GLP-1 receptor; [3]), values ahead:

Row | EC50 (human GLP-1 receptor; [2]) [nM] | EC50 (human GLP-1 receptor; [3]) [nM] | Compound | 4 h Cholesterol Efflux Emax [1] [%] | EC50 (human GLP-1 receptor; GLP1R CRE luc 1% HSA EC50 Mean Value) [nM] | EC50 [1] [nM] | EC50 (human GLP-1 receptor; GLP1R CRE luc 0% HSA EC50 Mean Value) [nM]
5 |  | 0.372 | CC[C@H](C)[C@H](NC(=O)[C@H](Cc1ccccc1)NC(=O)[C@H](CCC(=O)O)NC(=O)[C@H](CCCCN)NC(=O)[C@@H](NC(=O)[C@H](C)NC(=O)[C@H](CCC(=O)O)NC(=O)CNC(=O)[C@H](CCC(=O)O)NC(=O)[C@H](CC(C)C)NC(=O)[C@H](Cc1ccc(O)cc1)NC(=O)[C@H](CO)NC(=O)[C@H](CO)NC(=O)[C@@H](NC(=O)[C@H](CC(=O)O)NC(=O)[C@H](CO)NC(=O)[C@@H](NC(=O)[C@H](Cc1ccccc1)NC(=O)[C@@H](NC(=O)CNC(=O)[C@H](CCC(=O)O)NC(=O)C(C)(C)NC(=O)[C@@H](N)Cc1c[nH]cn1)[C@@H](C)O)[C@@H](C)O)C(C)C)C(C)C)C(=O)N[C@@H](C)C(=O)N[C@@H](Cc1c[nH]c2ccccc12)C(=O)N[C@@H](CC(C)C)C(=O)N[C@H](C(=O)N[C@@H](CCC(=O)O)C(=O)N[C@@H](CCCCN)C(=O)N[C@H](C(=O)N[C@@H](CCCCN)C(=O)N[C@@H](CCC(=O)O)C(=O)N[C@@H](Cc1ccccc1)C(=O)N[C@@H](Cc1ccccc1)C(N)=O)C(C)C)C(C)C [Compound 121, [Aib8,Glu23,Val25,Glu34,Lys35,Val36,Lys37]-GLP-1-(7-37)-peptidyl-Glu-Phe-Phe amide] (H-H[Aib]EGTFTSDVSSYLEGEAVKEFIAWLVEKVKEFF-NH2) | 109 |  |  | 
6 |  | 0.032 | CC[C@H](C)[C@H](NC(=O)[C@H](Cc1ccccc1)NC(=O)[C@H](CCC(=O)O)NC(=O)[C@H](CCCNC(=N)N)NC(=O)[C@@H](NC(=O)[C@H](C)NC(=O)[C@H](CCC(=O)O)NC(=O)[C@H](CCC(=O)O)NC(=O)[C@H](CCC(=O)O)NC(=O)[C@H](CCSC)NC(=O)[C@H](CCC(N)=O)NC(=O)[C@H](CCCCN)NC(=O)[C@H](CO)NC(=O)[C@H](CC(C)C)NC(=O)[C@H](CC(=O)O)NC(=O)[C@H](CO)NC(=O)[C@@H](NC(=O)[C@H](Cc1ccccc1)NC(=O)[C@@H](NC(=O)CNC(=O)[C@H](CCC(=O)O)NC(=O)C(C)(C)NC(=O)[C@@H](N)Cc1c[nH]cn1)[C@@H](C)O)[C@@H](C)O)C(C)C)C(=O)N[C@@H](CCC(=O)O)C(=O)N[C@@H](Cc1c[nH]c2ccccc12)C(=O)N[C@@H](CC(C)C)C(=O)N[C@@H](CCCCN)C(=O)N[C@@H](CC(N)=O)C(=O)NCC(=O)NC(C)(C)C(=O)N[C@@H](CC(C)C)C(=O)N[C@@H](CCC(=O)O)C(=O)N[C@@H](Cc1ccccc1)C(=O)N[C@@H](CC(C)C)C(=O)N[C@@H](CCC(=O)O)C(=O)N[C@@H](CC(C)C)C(=O)N[C@@H](CC(C)C)C(N)=O [Compound 34, [Aib2,Glu21,Aib30,Leu31,Glu32,Phe33,Leu34,Glu35,Leu36,Leu371-Exendin-4-(1-37)-peptide amide] (H-H[Aib]EGTFTSDLSKQMEEEAVREFIEWLKNG[Aib]LEFLELL-NH2; N-terminus assumed) | 94 |  |  | 
7 | 0.034 | 0.013 | CC[C@H](C)[C@H](NC(=O)[C@H](Cc1ccccc1)NC(=O)[C@H](CCC(=O)O)NC(=O)[C@H](CCCCN)NC(=O)[C@@H](NC(=O)[C@H](C)NC(=O)[C@H](CCC(=O)O)NC(=O)CNC(=O)[C@H](CCC(=O)O)NC(=O)[C@H](CC(C)C)NC(=O)[C@H](Cc1ccc(O)cc1)NC(=O)[C@H](CO)NC(=O)[C@H](CO)NC(=O)[C@@H](NC(=O)[C@H](CC(=O)O)NC(=O)[C@H](CO)NC(=O)[C@@H](NC(=O)[C@H](Cc1ccccc1)NC(=O)[C@@H](NC(=O)CNC(=O)[C@H](CCC(=O)O)NC(=O)C(C)(C)NC(=O)[C@@H](N)Cc1c[nH]cn1)[C@@H](C)O)[C@@H](C)O)C(C)C)C(C)C)C(=O)N[C@@H](C)C(=O)N[C@@H](Cc1c[nH]c2ccccc12)C(=O)N[C@@H](CC(C)C)C(=O)N[C@H](C(=O)N[C@@H](CCC(=O)O)C(=O)NCC(=O)NC(C)(C)C(=O)N[C@@H](CCCCN)C(=O)N[C@@H](CCC(=O)O)C(=O)N[C@@H](Cc1ccccc1)C(=O)N[C@@H](CC(C)C)C(N)=O)C(C)C [Compound 30, [Aib8,Glu23,Val25,Glu34,Aib36,Lys37]-GLP-1-(7-37)-peptidyl-Glu-Phe-Leu amide] (H-H[Aib]EGTFTSDVSSYLEGEAVKEFIAWLVEG[Aib]KEFL-NH2) | 75 |  |  | 
8 | 0.041 | 0.013 | H-HAEGTFTSDVSSYLEGQAAKEFIAWLVEKVGEFLEK-OH [Compound 128] | 112 |  |  | 
